Patent US4933361A, “Derivatives of bicyclic aminoacids agents containing these compounds and their use” (Hoechst Aktiengesellschaft, priority 1981, dated 1990)
Structures can show the parent of a compound that is named as a salt.

System: pressor reaction induced by 310 ng of angiotensin I
Test: Intraduodenal administration to the anesthetized rat, 50% inhibition of the pressor reaction induced by angiotensin I
Type: in vivo
Details: 310 ng angiotensin I, 30 min after administration; for ED50: 0.5 h
Excerpt: After administration in the dose . . . =ED50 :

[1] = Table II, H atoms on C-3a and C-(6+n)a trans, X = phenyl, R1 = methyl
[2] = Table I, H atoms on C-3a and C-(6+n)a cis

Row | Structure (SMILES) | ED50 [1] [mg/kg] | ED50 [2] [mg/kg] | other results
1 | CCOC(=O)[C@H](CCc1ccccc1)N[C@@H](C)C(=O)N1[C@H](C(=O)O)C[C@H]2CCCC[C@@H]21 [Example 42, N-(1S-Carboethoxy-3-phenylpropyl)-S-alanyl-2S,3aR,7aS-octahydroindole-2-carboxylic acid] | 0.055 |  | 
2 | C[C@H](N[C@@H](CCc1ccccc1)C(=O)O)C(=O)N1[C@@H]2CCC[C@@H]2C[C@H]1C(=O)O [Example 21, N-(1S-Carboxy-3-phenylpropyl)-S-alanyl-2S,3aR,6aR-octahydrocyclopenta[b]pyrrole-2-carboxylic acid] |  | 0.7 | 
3 | CCOC(=O)[C@H](CCc1ccccc1)N[C@@H](C)C(=O)N1[C@@H]2CCC[C@@H]2C[C@H]1C(=O)O [Example 18, N-(1S-Carboethoxy-3-phenylpropyl)-S-alanyl-2S,3aR,6aR-octahydrocyclopenta[b]pyrrole-2-carboxylic acid hydrochloride] |  | 0.04 | 
4 | C[C@H](N[C@@H](CCc1ccccc1)C(=O)O)C(=O)N1[C@H](C(=O)O)C[C@H]2CCCC[C@@H]21 [Example 75, N-(1S-Carboxy-3-phenylpropyl)-S-alanyl-2S,3aR,7aS-octahydroindole-2-carboxylic acid] | 0.8 |  | 
5 | CCOC(=O)[C@H](CCc1ccccc1)N[C@@H](C)C(=O)N1[C@H](C(=O)O)C[C@H]2CCC[C@@H]21 [Example 44, N-(1S-Carboethoxy-3-phenylpropyl)-S-alanyl-2S,3aR,6aS-octahydrocyclopenta[b]pyrrole-2-carboxylic acid] | 0.04 |  | 
6 | C[C@H](N[C@@H](CCc1ccccc1)C(=O)O)C(=O)N1[C@H](C(=O)O)C[C@H]2CCCCC[C@@H]21 [Example 79, N-(1S-Carboxy-3-phenylpropyl)-S-alanyl-2S,3aR,6aS-decahydrocyclohepta[b]pyrrole-2-carboxylic acid] | 1.08 |  | 
7 | CCOC(=O)[C@H](CC(=O)c1ccccc1)N[C@@H](C)C(=O)N1C(C(=O)O)CC2CCCCC21.O=C(O)C(F)(F)F (stereo partly drawn) [Example 29, N-(1S-Carboethoxy-3-phenyl-3-oxopropyl)-S-alanyl-2β,3aβ,7aβ-octahydroindole-2-carboxylic acid trifluoroacetate] |  |  | ED50 (50% inhibition of the pressor reaction induced by angiotensin I) [2]: 0.39 mg/kg
8 | CCOC(=O)[C@H](CCc1ccccc1)N[C@@H](C)C(=O)N1[C@@H]2CCCCC[C@@H]2C[C@H]1C(=O)O [Example 19, N-(1S-Carboethoxy-3-phenylpropyl)-S-alanyl-2S,3aR,8aR-decahydrocyclohepta[b]pyrrole-2-carboxylic acid hydrochloride] |  | 0.23 | 
9 | C[C@H](N[C@@H](CCc1ccccc1)C(=O)O)C(=O)N1[C@@H]2CCCCC[C@@H]2C[C@H]1C(=O)O [Example 22, N-(1S-Carboxy-3-phenylpropyl)-S-alanyl-2S,3aR,8aR-decahydrocyclohepta[b]pyrrole-2-carboxylic acid] |  | 0.84 | 
10 | C[C@H](N[C@@H](CCc1ccccc1)C(=O)O)C(=O)N1[C@@H]2CCCC[C@H]2C[C@H]1C(=O)O [Example 76, N-(1S-Carboxy-3-phenylpropyl)-S-alanyl-2S,3aS,7aR-octahydroindole-2-carboxylic acid] | 0.85 |  | 
11 | C[C@H](N[C@@H](CCc1ccccc1)C(=O)O)C(=O)N1[C@@H]2CCCC[C@@H]2C[C@H]1C(=O)O [Example 20, N-(1S-Carboxy-3-phenylpropyl)-S-alanyl-2S,3aR,7aR-octahydroindole-2-carboxylic acid] |  | 0.6 | 
12 | CCOC(=O)[C@H](CCc1ccccc1)N[C@@H](C)C(=O)N1[C@@H]2CCCC[C@H]2C[C@H]1C(=O)O [Example 43, N-(1S-Carboethoxy-3-phenylpropyl)-S-alanyl-2S,3aS,7aR-octahydroindole-2-carboxylic acid] | 0.065 |  | 
13 | CCOC(=O)[C@H](CC(=O)c1ccccc1)N[C@@H](C)C(=O)N1[C@H](C(=O)O)C[C@H]2CCCC[C@@H]21 [Example 67, N-(1S-Carboethoxy-3-keto-3-phenylpropyl)-S-alanyl-2S,3aR,7aS-octahydroindole-2-carboxylic acid] | 0.18 |  | 
14 | CCOC(=O)[C@H](CCc1ccccc1)N[C@@H](C)C(=O)N1[C@@H]2CCCC[C@@H]2C[C@H]1C(=O)O [Example 17, N-(1S-Carboethoxy-3-phenylpropyl)-S-alanyl-2S,3aR,7aR-octahydroindole-2-carboxylic acid hydrochloride] |  | 0.05 | 
15 | C[C@H](N[C@@H](CCc1ccccc1)C(=O)O)C(=O)N1[C@H](C(=O)O)C[C@H]2CCC[C@@H]21 [Example 77, N-(1S-Carboxy-3-phenylpropyl)-S-alanyl-2S,3aR,6aS-octahydrocyclopenta[b]pyrrole-2-carboxylic acid] | 0.7 |  | 
16 | CCOC(=O)[C@H](CCc1ccccc1)N[C@@H](C)C(=O)N1[C@H](C(=O)O)C[C@H]2CCCCC[C@@H]21 [Example 46, N-(1S-Carboethoxy-3-phenylpropyl)-S-alanyl-2S,3aR,8aS-decahydrocyclohepta[b]pyrrole-2-carboxylic acid] | 0.11 |  | 
